# Experimental data published in the supplement of paper PMC10307832.
# Assays:
# Assay in all cases: relative viability (nuclei count vs DMSO), 5 days (fraction); higher = more cells survive
# [1] = compound: CN1CCN(CC1)C2=CC(=C(C=C2)NC3=NC=C4C(=N3)N(C5=CC=CC=C5C(=O)N4C)C)OC [XMD8-85] + N=C(N)NC(=N)NCCc1ccccc1 [Phenformin] (partner 250 µM)
# How it was run: (§1)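 Relative viability was taken as the ratio of nuclei in treated wells to nuclei in vehicle wells. Lung cancer cell lines in 1536-well plates received compounds by pin tool one day after seeding, either one drug alone or a fixed anchor-drug dose plus five library-drug doses (not always all listed) in √10 steps. Nuclei were counted on 4× images after 5 days of treatment, and values are medians of duplicate plates.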
# [2] = compound: CN1CCN(CC1)C2=CC(=C(C=C2)NC3=NC=C4C(=N3)N(C5=CC=CC=C5C(=O)N4C)C)OC [XMD8-85] + CC1(C)CCC(c2ccc(Cl)cc2)=C(CN2CCN(c3ccc(C(=O)NS(=O)(=O)c4ccc(N[C@H](CCN5CCOCC5)CSc5ccccc5)c(S(=O)(=O)C(F)(F)F)c4)cc3)CC2)C1 [Navitoclax] (partner 0.5 µM)
# How it was run: as §1
# [3] = compound: O=C(O)C(Cc1ccccc1[N+](=O)[O-])=NNc1nc(-c2ccc(Cl)c(Cl)c2)cs1 (mixture of isomers) [4EGI-1] + Cc1nc(NC(=O)N2CCC[C@H]2C(N)=O)sc1-c1ccnc(C(C)(C)C(F)(F)F)c1 [Alpelisib] (partner 2 µM)
# How it was run: as §1
# [4] = compound: O=C(O)C(Cc1ccccc1[N+](=O)[O-])=NNc1nc(-c2ccc(Cl)c(Cl)c2)cs1 (mixture of isomers) [4EGI-1] + CCNC(=O)c1noc(-c2cc(C(C)C)c(O)cc2O)c1-c1ccc(CN2CCOCC2)cc1 [Luminespib] (partner 0.01 µM)
# How it was run: as §1
Cell Line,relative viability ([1]; first compound 0.08 µM),relative viability ([1]; first compound 0.253 µM),relative viability ([1]; first compound 0.8 µM),relative viability ([1]; first compound 2.53 µM),relative viability ([2]; first compound 0.08 µM),relative viability ([2]; first compound 0.253 µM),relative viability ([2]; first compound 2.53 µM),relative viability ([2]; first compound 8 µM),relative viability ([3]; first compound 0.5 µM),relative viability ([3]; first compound 1.581 µM),relative viability ([3]; first compound 5 µM),relative viability ([3]; first compound 15.81 µM),relative viability ([3]; first compound 50 µM),relative viability ([4]; first compound 0.5 µM),relative viability ([4]; first compound 5 µM),relative viability ([4]; first compound 15.81 µM),relative viability ([4]; first compound 50 µM),relative viability ([1]; first compound 8 µM),relative viability ([2]; first compound 0.8 µM),relative viability ([4]; first compound 1.581 µM)
NCI-H2347,0.357,0.382,0.388,0.393,0.757,0.852,0.809,0.63,1.2,0.953,1.04,0.965,0.978,0.499,0.438,0.426,0.411,,,
NCI-H1437,,0.299,0.338,0.329,1.16,1.16,0.979,0.591,1.13,0.865,0.84,0.845,0.153,1.19,1.15,0.862,0.457,0.268,1.13,1.05
NCI-H1623,0.611,0.584,0.578,0.555,,,,,,,,,,0.637,0.707,0.383,0.387,,,0.553
NCI-H2126,0.524,0.528,0.525,0.543,0.946,0.935,0.897,0.839,0.779,0.716,0.749,0.67,0.739,0.993,0.96,0.855,0.678,0.455,0.899,
SW 900,0.448,0.523,0.675,0.554,,,,,,,,,,0.253,0.177,0.156,0.191,0.22,,
NCI-H1299,,,,,1.1,1.06,1,0.804,1.03,1.08,0.989,0.955,1.04,,,,,,1.06,
NCI-H1563,0.65,0.609,0.63,,,,,,0.998,0.884,0.983,0.906,0.697,0.447,0.542,0.5,0.412,0.615,,0.567
NCI-H358,0.301,0.314,0.312,0.385,,,,,0.966,0.817,0.96,0.653,0.175,0.339,0.293,0.224,0.153,0.167,,0.353
ChaGo-K-1,0.421,0.533,0.493,0.512,0.788,0.983,1.13,0.421,,,,,,0.631,0.62,0.517,0.491,,1.02,0.38
Calu-6,,,,,0.93,0.953,1.02,0.668,1.08,0.493,1.21,0.933,0.375,,,,,,0.911,
IA-LM,,,,,0.75,,0.641,0.185,0.916,0.647,0.586,0.149,0.0833,,,,,,0.763,
HCC-366,0.598,0.611,0.617,0.63,1.12,1.06,1.06,0.63,0.642,0.364,0.399,0.5,0.331,,,,,0.649,1.27,
EBC-1,,,,,0.437,0.375,0.296,0.268,0.947,0.876,1.08,0.477,0.273,,,,,,0.402,
A549,0.0975,0.198,0.149,0.274,1.33,1.24,1.19,0.933,0.801,0.479,0.984,0.611,0.273,,,,,0.193,1.28,
NCI-H661,0.292,0.287,0.278,0.276,,,,,0.82,0.446,1.26,0.535,0.229,0.883,0.798,0.606,0.505,0.287,,0.76
NCI-H650,,0.44,0.439,0.436,,,,,1.15,,1.25,1.15,0.92,0.825,0.878,0.646,0.784,0.306,,
ABC-1,0.221,0.245,0.248,0.234,,,,,1.07,1.03,1.02,0.74,0.405,0.83,0.792,0.402,0.201,0.229,,0.326
LCLC-103H,0.329,0.34,0.36,0.372,,,,,1.01,0.866,0.866,0.879,0.879,0.984,0.989,0.82,0.618,0.303,,0.898
NCI-H1703,,,,,1.02,1.18,1.13,0.983,0.414,0.305,0.387,0.338,0.381,,,,,,1.23,
NCI-H522,0.664,0.697,0.338,0.367,,,,,,,,,,1.18,1.13,1.33,0.711,0.67,,0.612
